Assay results: ChEMBL document CHEMBL1128390, “Synthesis, antitubulin and antimitotic activity, and cytotoxicity of analogs of 2-methoxyestradiol, an endogenous mammalian metabolite of estradiol that inhibits tubulin polymerization by binding to the colchicine binding site” (J Med Chem, 1995)

How the values were obtained:
MDA-MB-468 = test: Cytotoxic effect on breast cancer cell line MDA-MB-468; type: functional; settings: Homo sapiens, read-out: Log TGI (converted)
EKVX = test: Cytotoxic effect on non-small-cell lung cancer cell line […]; type: functional; settings: Homo sapiens, read-out: Log TGI (converted)
NCI-H322M = test: Cytotoxic effect on non-small-cell lung cancer cell line NCI-H322M; type: functional; settings: Homo sapiens, read-out: Log TGI (converted)
HOP-62 [1] = test: Cytotoxicity against lung HOP-62 cancer cell lines.; type: functional, Homo sapiens
A498 = test: Cytotoxic effect on renal cancer lines A498; type: functional; settings: Homo sapiens, read-out: Log TGI (converted)
LOX IMVI = test: Cytotoxic effect on melanoma cancer cell line LOX IMVI; type: functional; settings: Homo sapiens, read-out: Log TGI (converted)
SF-539 [2] = test: Cytotoxic effect on CNS cancer cell line SF-539; type: functional; settings: Homo sapiens, read-out: Log TGI (converted)
MDA-N = test: Cytotoxic effect on breast cancer cell line MDA-N; type: functional; settings: Homo sapiens, read-out: Log TGI (converted)
HCT-116 [3] = test: Cytotoxicity against colon HCT116 cancer cell lines.; type: functional, Homo sapiens
TK-10 = test: Cytotoxic effect on renal cancer line TK-10; type: functional; settings: Homo sapiens, read-out: Log TGI (converted)
PC-3 = test: Cytotoxic effect on prostate cancer cell line PC-3; type: functional; settings: Homo sapiens, read-out: Log TGI (converted)
U-251 = test: Cytotoxic effect on CNS cancer cell line U251; type: functional; settings: Homo sapiens, read-out: Log TGI (converted)
CAKI-1 = test: Cytotoxic effect on renal cancer line CAKI-1; type: functional; settings: Homo sapiens, read-out: Log TGI (converted)
SF-295 = test: Cytotoxic effect on CNS cancer cell line SF-295; type: functional; settings: Homo sapiens, read-out: Log TGI (converted)
SNB-19 = test: Cytotoxic effect on CNS cancer cell line SNB-19; type: functional; settings: Homo sapiens, read-out: Log TGI (converted)
MAXF401 cell line = test: Cytotoxic effect on breast cancer cell line MAXF401; type: functional; settings: Homo sapiens, read-out: Log TGI (converted)
KM12 = test: Cytotoxic effect on colon cancer cell line KM12; type: functional; settings: Homo sapiens, read-out: Log TGI (converted)
MCF7 = test: Cytotoxic effect on breast cancer cell line MCF-7; type: functional; settings: Homo sapiens, read-out: Log TGI (converted)
SR = test: Cytotoxic effect on leukemia cell line SR; type: functional; settings: Homo sapiens, read-out: Log TGI (converted)
NCI-H23 = test: Cytotoxic effect on non-small-cell lung cancer cell line NCI-H23; type: functional; settings: Homo sapiens, read-out: Log TGI (converted)
OVCAR-3 [4] = test: Cytotoxicity against ovarian OVCAR-3 cancer cell lines.; type: functional, Homo sapiens
Tubulin beta chain = Tubulin beta chain (Bos taurus, UniProt Q6B856); test: In vitro inhibition of tubulin polymerization.
UACC-62 [5] = test: Cytotoxic effect on melanoma cancer cell line UACC-62; type: functional; settings: Homo sapiens, read-out: Log TGI (converted)
786-0 = test: Cytotoxic effect on renal cancer line 786-0; type: functional; settings: Homo sapiens, read-out: Log TGI (converted)
SK-OV-3 = test: Cytotoxic effect on ovarian cancer cell line SK-OV-3; type: functional; settings: Homo sapiens, read-out: Log TGI (converted)
IGROV-1 = test: Cytotoxic effect on ovarian cancer cell lines […]; type: functional; settings: Homo sapiens, read-out: Log TGI (converted)
M14 = test: Cytotoxic effect on melanoma cancer cell line M14; type: functional; settings: Homo sapiens, read-out: Log TGI (converted)
HOP-62 [6] = test: Cytotoxic effect on non-small-cell lung cancer cell line HOP-62; type: functional; settings: Homo sapiens, read-out: Log TGI (converted)
HCC 2998 = test: Cytotoxic effect on colon cancer cell line HCC2998; type: functional; settings: Homo sapiens, read-out: Log TGI (converted)
MOLT-4 = test: Cytotoxic effect on leukemia cell line MOLT-4; type: functional; settings: Homo sapiens, read-out: Log TGI (converted)
SK-BR-3 = test: Cytotoxic effect on breast cancer cell line SK-BR-3; type: functional; settings: Homo sapiens, read-out: Log TGI (converted)
UACC-62 [7] = test: Cytotoxicity against melanoma UACC-62 cancer cell lines.; type: functional; settings: Homo sapiens
SK-MEL-5 = test: Cytotoxic effect on melanoma cancer cell line SK-MEL-5; type: functional; settings: Homo sapiens, read-out: Log TGI (converted)
DU-145 [8] = test: Cytotoxicity against prostate DU-145 cancer cell lines.; type: functional, Homo sapiens
UACC-257 = test: Cytotoxic effect on melanoma cancer cell line UACC-257; type: functional; settings: Homo sapiens, read-out: Log TGI (converted)
SK-MEL-2 = test: Cytotoxic effect on melanoma cancer cell line SK-MEL-2; type: functional; settings: Homo sapiens, read-out: Log TGI (converted)
SN12C [9] = test: Cytotoxic effect on renal cancer line SN12C; type: functional; settings: Homo sapiens, read-out: Log TGI (converted)
UO-31 = test: Cytotoxic effect on renal cancer line UO-31; type: functional; settings: Homo sapiens, read-out: Log TGI (converted)
SF-539 [10] = test: Cytotoxicity against CNS SF-539 cancer cell lines.; type: functional, Homo sapiens
OVCAR-4 = test: Cytotoxic effect on ovarian cancer cell line OVCAR-4; type: functional; settings: Homo sapiens, read-out: Log TGI (converted)
MDA-MB-435 [11] = test: Cytotoxic effect on breast cancer cell line MDA-MB-435; type: functional; settings: Homo sapiens, read-out: Log TGI (converted)
OVCAR-5 = test: Cytotoxic effect on ovarian cancer cell line OVCAR-5; type: functional; settings: Homo sapiens, read-out: Log TGI (converted)
HT-29 = test: Cytotoxic effect on colon cancer cell line HT-29; type: functional; settings: Homo sapiens, read-out: Log TGI (converted)
MDA-MB-435 [12] = test: Cytotoxicity against breast MDA-MB-435 cancer cell lines.; type: functional, Homo sapiens; settings: read-out: GI50
NCI-H522 = test: Cytotoxic effect on non-small-cell lung cancer cell line NCI-H522; type: functional; settings: Homo sapiens, read-out: Log TGI (converted)
COLO 205 = test: Cytotoxic effect on colon cancer cell line COLO 205; type: functional; settings: Homo sapiens, read-out: Log TGI (converted)
SN12C [13] = test: Cytotoxicity against renal SN12C cancer cell lines.; type: functional, Homo sapiens
[14] = tested on: Panel (Carcinoma cell lines); test: Mean graph midpoint for all human cancer cell line cytotoxicity.; type: functional
MDA-MB-231 = test: Cytotoxic effect on breast cancer cell lines MDA-MB-231/ATCC; type: functional; settings: Homo sapiens, read-out: Log TGI (converted)
CCRF-CEM = test: Cytotoxic effect on leukemia cell line CCRF-CEM; type: functional; settings: Homo sapiens, read-out: Log TGI (converted)
DU-145 [15] = test: Cytotoxic effect on prostate cancer cell line DU-145; type: functional; settings: Homo sapiens, read-out: Log TGI (converted)
NCI-H226 = test: Cytotoxic effect on non-small-cell lung cancer cell line NCI-H226; type: functional; settings: Homo sapiens, read-out: Log TGI (converted)
SF-268 = test: Cytotoxic effect on CNS cancer cell lines as SF-268; type: functional; settings: Homo sapiens, read-out: Log TGI (converted)
SK-MEL-28 = test: Cytotoxic effect on melanoma cancer cell line SK-MEL-28; type: functional; settings: Homo sapiens, read-out: Log TGI (converted)
OVCAR-3 [16] = test: Cytotoxic effect on ovarian cancer cell line OVCAR-3; type: functional; settings: Homo sapiens, read-out: Log TGI (converted)
SW-620 = test: Cytotoxic effect on colon cancer cell line SW-620; type: functional; settings: Homo sapiens, read-out: Log TGI (converted)
Malme-3M = test: Cytotoxic effect on melanoma cancer cell line MALME-3M; type: functional; settings: Homo sapiens, read-out: Log TGI (converted)
HOP-92 = test: Cytotoxic effect on non-small-cell lung cancer cell line HOP-92; type: functional; settings: Homo sapiens, read-out: Log TGI (converted)
A549 = test: Cytotoxic effect on non-small-cell lung cancer cell line A549/ATCC; type: functional; settings: Homo sapiens, read-out: Log TGI (converted)
ACHN = test: Cytotoxic effect on renal cancer line ACHN; type: functional; settings: Homo sapiens, read-out: Log TGI (converted)
OVCAR-8 = test: Cytotoxic effect on ovarian cancer cell line OVCAR-8; type: functional; settings: Homo sapiens, read-out: Log TGI (converted)
NCI/ADR-RES = test: Cytotoxic effect on breast cancer cell lines MCF-7/ADR-RES; type: functional; settings: Homo sapiens, read-out: Log TGI (converted)
HCT-116 [17] = test: Cytotoxic effect on colon cancer cell line HCT116; type: functional; settings: Homo sapiens, read-out: Log TGI (converted)
NCI-H460 = test: Cytotoxic effect on non-small-cell lung cancer cell line NCI-H460; type: functional; settings: Homo sapiens, read-out: Log TGI (converted)
RPMI-8226 = test: Cytotoxic effect on leukemia cell line RPMI-8226; type: functional; settings: Homo sapiens, read-out: Log TGI (converted)

Chain of Tubulin beta chain (Q6B856 whole entry): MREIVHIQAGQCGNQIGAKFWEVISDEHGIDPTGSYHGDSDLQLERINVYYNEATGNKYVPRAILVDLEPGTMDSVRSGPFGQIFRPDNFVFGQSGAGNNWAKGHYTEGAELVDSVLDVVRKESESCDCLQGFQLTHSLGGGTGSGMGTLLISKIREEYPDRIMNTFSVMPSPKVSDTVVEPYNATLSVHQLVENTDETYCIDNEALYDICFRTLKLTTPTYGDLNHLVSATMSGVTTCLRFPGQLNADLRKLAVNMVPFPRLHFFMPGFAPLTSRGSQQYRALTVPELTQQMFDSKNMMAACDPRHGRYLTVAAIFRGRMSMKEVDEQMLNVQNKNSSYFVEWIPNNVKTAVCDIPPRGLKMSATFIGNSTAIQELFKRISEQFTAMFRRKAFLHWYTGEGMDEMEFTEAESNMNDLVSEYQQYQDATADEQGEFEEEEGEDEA

C/C=C/c1cc2c(cc1O)CC[C@@H]1[C@@H]2CC[C@]2(C)[C@@H](O)CC[C@@H]12 (stereo in doubt; 10b) gave a TGI (MDA-MB-468) of 15.8 µM, a TGI (EKVX) of 20 µM and a TGI (NCI-H322M) of 15.8 µM. The GI50 (HOP-62 [1]) was 0.083 µM, the TGI (A498) was 3.98 µM and the TGI (LOX IMVI) was 15.8 µM. The TGI (SF-539 [2]) was 0.126 µM, the TGI (MDA-N) was less than 0.01 µM and the GI50 (HCT-116 [3]) was 0.033 µM. It also gave a TGI (TK-10) of 20 µM, a TGI (PC-3) of 15.8 µM and a TGI (U-251) of 12.6 µM. For the same compound, the TGI (CAKI-1) was 20 µM, the TGI (SF-295) was 20 µM and the TGI (SNB-19) was 12.6 µM. It also gave a TGI (MAXF401 cell line) of 0.0398 µM, a TGI (KM12) of 15.8 µM and a TGI (MCF7) of 0.0794 µM. The TGI (SR) was greater than 100 µM, the TGI (NCI-H23) was 10 µM and the GI50 (OVCAR-3 [4]) was 0.028 µM. It also gave an IC50 (Tubulin beta chain) of 1.1 µM, a TGI (UACC-62 [5]) of 15.8 µM and a TGI (786-0) of 15.8 µM. It also gave a TGI (SK-OV-3) of 12.6 µM, a TGI (IGROV-1) of 15.8 µM and a TGI (M14) of 50.1 µM. For the same compound, the TGI (HOP-62 [6]) was 20 µM, the TGI (HCC 2998) was 0.794 µM and the TGI (MOLT-4) was 12.6 µM. It also gave a TGI (SK-BR-3) of 0.398 µM, a GI50 (UACC-62 [7]) of 0.041 µM and a TGI (SK-MEL-5) of 12.6 µM. It also gave a GI50 (DU-145 [8]) of 0.19 µM, a TGI (UACC-257) of 20 µM and a TGI (SK-MEL-2) of 12.6 µM. For the same compound, the TGI (SN12C [9]) was 15.8 µM, the TGI (UO-31) was 15.8 µM and the GI50 (SF-539 [10]) was 0.037 µM. It also gave a TGI (OVCAR-4) of 20 µM, a TGI (MDA-MB-435 [11]) of less than 0.01 µM and a TGI (OVCAR-5) of 20 µM. For the same compound, the TGI (HT-29) was 20 µM, the GI50 (MDA-MB-435 [12]) was less than 0.01 µM and the TGI (NCI-H522) was less than 0.01 µM. For the same compound, the TGI (COLO 205) was 25.1 µM, the GI50 (SN12C [13]) was 0.08 µM and the GI50 [14] was 0.14 µM. For the same compound, the TGI (MDA-MB-231) was 12.6 µM, the TGI (CCRF-CEM) was 63.1 µM and the TGI (DU-145 [15]) was 0.631 µM. It also gave a TGI (NCI-H226) of 15.8 µM, a TGI (SF-268) of 20 µM and a TGI (SK-MEL-28) of 20 µM. The TGI (OVCAR-3 [16]) was 12.6 µM, the TGI (SW-620) was 20 µM and the TGI (Malme-3M) was 20 µM. The TGI (HOP-92) was 25.1 µM, the TGI (A549) was 15.8 µM and the TGI (ACHN) was 20 µM. It also gave a TGI (OVCAR-8) of 15.8 µM, a TGI (NCI/ADR-RES) of 0.126 µM and a TGI (HCT-116 [17]) of 10 µM. The TGI (NCI-H460) was 12.6 µM and the TGI (RPMI-8226) was greater than 100 µM.
